# Assay results taken from ChEMBL document CHEMBL4325862, “Identification of novel quinazoline derivatives as potent antiplasmodial agents” (Eur J Med Chem, 2019).
# Activity calls are given as the source filed them. The rule behind the calls is not given here.
# What was measured:
# Plasmodium berghei [1] = assay: Antimalarial activity against Plasmodium berghei ANKA infected in BALB/c mouse assessed as reduction in parasitemia at 10 mg/kg, po administered once daily for 4 days by Giemsa-staining based microscopic analysis; assay type: functional, organism-based
# [2] = molecular target: T1, DNA (cytosine-5)-methyltransferase 3A (Homo sapiens, UniProt Q9Y6K1); assay: Inhibition of recombinant human DNMT3a C-terminal catalytic domain (623 to 908 residues) at 10 uM using 5'-biotinylated/3'-FAM-oligonucleotide as substrate measured after 1 hr in presence of Adomet by fluorescence assay relative to control
# T1 sequence (Q9Y6K1 whole entry, looked up, the tested form may be a part): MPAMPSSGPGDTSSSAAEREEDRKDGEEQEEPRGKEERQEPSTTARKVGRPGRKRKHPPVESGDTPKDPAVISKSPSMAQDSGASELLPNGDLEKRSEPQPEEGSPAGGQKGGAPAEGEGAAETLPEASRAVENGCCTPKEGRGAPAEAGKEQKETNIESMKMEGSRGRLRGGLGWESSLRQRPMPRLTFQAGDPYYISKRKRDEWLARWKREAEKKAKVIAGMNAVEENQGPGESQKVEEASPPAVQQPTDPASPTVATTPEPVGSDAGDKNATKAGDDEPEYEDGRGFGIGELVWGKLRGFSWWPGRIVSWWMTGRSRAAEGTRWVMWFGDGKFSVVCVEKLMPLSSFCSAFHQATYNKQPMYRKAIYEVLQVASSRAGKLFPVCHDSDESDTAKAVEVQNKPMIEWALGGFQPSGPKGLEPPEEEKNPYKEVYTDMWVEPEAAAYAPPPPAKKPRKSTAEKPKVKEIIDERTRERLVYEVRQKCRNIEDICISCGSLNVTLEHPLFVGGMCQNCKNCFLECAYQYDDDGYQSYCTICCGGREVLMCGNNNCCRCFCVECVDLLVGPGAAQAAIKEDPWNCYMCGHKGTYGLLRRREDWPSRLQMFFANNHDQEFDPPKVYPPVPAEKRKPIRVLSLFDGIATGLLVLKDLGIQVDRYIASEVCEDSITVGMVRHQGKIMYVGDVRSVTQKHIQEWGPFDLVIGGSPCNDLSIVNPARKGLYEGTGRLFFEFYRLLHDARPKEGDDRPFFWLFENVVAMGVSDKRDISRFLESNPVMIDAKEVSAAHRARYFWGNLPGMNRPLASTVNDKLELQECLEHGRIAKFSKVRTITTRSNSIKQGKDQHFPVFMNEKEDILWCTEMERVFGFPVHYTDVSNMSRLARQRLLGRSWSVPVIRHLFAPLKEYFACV
# Plasmodium falciparum [3] = assay: Antiplasmodial activity against asynchronous form of Plasmodium falciparum 3D7 infected in human erythrocytes assessed as parasite growth inhibition at 10 uM after 48 hrs by SYBR green1 staining based flow cytometry relative to control; assay type: functional; details: 3D7, 48 h
# Plasmodium falciparum [4] = assay: Antiplasmodial activity against asynchronous form of Plasmodium falciparum 3D7 infected in human erythrocytes assessed as parasite growth inhibition after 48 hrs by SYBR green1 staining based flow cytometry; assay type: functional, organism-based; details: 3D7, 48 h
# [5] = molecular target: DNA (cytosine-5)-methyltransferase 1 (Homo sapiens, UniProt P26358); assay: Inhibition of recombinant human DNMT1 using biotinylated DNA duplex as substrate measured after 2 hrs in presence of Adomet/[methyl-3H]Adomet by topcount method
# Chain of DNA (cytosine-5)-methyltransferase 1 (P26358 whole entry, the tested form may be a part): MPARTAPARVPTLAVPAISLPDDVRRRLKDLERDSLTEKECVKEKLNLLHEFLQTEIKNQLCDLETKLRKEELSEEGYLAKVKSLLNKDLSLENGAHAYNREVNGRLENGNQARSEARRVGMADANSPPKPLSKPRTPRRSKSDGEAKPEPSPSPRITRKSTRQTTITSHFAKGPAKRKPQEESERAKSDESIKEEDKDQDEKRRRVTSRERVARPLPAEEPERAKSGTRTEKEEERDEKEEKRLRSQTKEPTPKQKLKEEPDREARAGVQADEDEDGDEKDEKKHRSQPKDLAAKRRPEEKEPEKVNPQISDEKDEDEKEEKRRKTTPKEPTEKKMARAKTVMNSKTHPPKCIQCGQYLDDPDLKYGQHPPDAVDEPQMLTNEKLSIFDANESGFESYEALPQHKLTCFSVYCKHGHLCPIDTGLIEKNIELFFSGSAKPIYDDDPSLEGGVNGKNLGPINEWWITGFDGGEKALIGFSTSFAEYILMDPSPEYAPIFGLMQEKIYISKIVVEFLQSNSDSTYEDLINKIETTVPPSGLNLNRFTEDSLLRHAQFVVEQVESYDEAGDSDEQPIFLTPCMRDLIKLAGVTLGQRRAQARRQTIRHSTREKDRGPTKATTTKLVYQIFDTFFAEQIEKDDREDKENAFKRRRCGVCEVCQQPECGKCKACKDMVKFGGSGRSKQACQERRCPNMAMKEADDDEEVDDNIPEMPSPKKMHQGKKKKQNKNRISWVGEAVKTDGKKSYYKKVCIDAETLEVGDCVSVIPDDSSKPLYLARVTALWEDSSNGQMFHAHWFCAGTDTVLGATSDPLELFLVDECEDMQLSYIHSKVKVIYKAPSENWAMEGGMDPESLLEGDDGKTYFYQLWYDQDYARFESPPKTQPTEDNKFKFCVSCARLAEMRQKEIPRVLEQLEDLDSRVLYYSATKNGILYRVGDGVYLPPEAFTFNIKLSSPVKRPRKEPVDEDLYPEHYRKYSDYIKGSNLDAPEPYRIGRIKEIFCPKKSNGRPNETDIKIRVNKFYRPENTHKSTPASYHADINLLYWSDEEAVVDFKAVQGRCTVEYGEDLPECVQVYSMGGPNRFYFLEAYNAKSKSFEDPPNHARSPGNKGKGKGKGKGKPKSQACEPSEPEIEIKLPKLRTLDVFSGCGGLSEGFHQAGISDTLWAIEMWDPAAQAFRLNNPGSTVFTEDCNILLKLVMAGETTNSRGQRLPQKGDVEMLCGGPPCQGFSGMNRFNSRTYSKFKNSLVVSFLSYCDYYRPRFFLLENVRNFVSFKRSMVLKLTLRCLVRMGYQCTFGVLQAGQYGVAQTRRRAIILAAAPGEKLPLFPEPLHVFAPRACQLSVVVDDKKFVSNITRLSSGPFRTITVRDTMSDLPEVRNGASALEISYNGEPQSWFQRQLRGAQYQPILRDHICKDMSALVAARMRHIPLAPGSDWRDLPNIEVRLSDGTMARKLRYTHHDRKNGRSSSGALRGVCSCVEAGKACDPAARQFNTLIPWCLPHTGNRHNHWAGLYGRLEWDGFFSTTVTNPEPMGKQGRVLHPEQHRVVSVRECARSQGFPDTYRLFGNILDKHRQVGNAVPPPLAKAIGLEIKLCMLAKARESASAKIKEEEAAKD
# [6] = molecular target: T1, DNA (cytosine-5)-methyltransferase 3A; assay: Inhibition of recombinant human DNMT3a C-terminal catalytic domain (623 to 908 residues) using 5'-biotinylated/3'-FAM-oligonucleotide as substrate measured after 1 hr in presence of Adomet by fluorescence assay
# [7] = molecular target: T2, Histone-lysine N-methyltransferase EHMT2 (Homo sapiens, UniProt Q96KQ7); assay: Inhibition of recombinant human N-terminal GST-fused G9a (786 to 1210 residues) expressed in Escherichia coli using biotinylated H3 (1 to 21 residues) as substrate measured after 1 hr in presence of 3H-Adomet by filter binding assay
# T2 sequence (Q96KQ7 whole entry): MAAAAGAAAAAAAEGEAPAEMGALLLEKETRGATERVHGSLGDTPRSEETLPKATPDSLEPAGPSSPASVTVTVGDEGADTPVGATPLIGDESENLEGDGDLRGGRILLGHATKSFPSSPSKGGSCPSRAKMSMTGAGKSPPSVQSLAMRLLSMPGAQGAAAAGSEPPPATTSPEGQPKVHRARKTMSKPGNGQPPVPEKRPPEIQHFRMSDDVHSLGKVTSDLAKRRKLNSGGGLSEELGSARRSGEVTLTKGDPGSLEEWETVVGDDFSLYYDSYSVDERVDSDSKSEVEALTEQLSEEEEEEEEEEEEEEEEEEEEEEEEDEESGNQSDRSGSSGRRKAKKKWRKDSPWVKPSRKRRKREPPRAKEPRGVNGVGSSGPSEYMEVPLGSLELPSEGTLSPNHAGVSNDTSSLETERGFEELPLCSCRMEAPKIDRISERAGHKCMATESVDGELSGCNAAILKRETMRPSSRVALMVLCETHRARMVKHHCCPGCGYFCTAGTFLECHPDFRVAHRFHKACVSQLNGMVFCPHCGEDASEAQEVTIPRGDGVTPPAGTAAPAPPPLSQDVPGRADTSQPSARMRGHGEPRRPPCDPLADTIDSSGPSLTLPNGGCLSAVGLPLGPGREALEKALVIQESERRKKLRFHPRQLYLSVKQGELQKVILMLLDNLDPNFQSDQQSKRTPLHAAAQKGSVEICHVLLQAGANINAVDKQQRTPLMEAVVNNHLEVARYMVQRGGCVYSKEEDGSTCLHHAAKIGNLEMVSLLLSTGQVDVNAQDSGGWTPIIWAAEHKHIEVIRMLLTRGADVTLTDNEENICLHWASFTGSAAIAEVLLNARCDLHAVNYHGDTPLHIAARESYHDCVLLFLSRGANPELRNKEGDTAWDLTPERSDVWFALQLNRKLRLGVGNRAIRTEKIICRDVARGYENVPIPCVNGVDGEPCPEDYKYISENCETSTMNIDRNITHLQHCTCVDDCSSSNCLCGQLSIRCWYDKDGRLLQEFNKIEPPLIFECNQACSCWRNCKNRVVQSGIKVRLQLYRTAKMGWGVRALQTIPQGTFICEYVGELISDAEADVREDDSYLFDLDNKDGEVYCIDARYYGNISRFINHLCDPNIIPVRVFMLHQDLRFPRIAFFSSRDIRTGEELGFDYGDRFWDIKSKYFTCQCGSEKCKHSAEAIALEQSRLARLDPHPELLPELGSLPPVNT
# Histone deacetylase 1 = Histone deacetylase 1 (Homo sapiens, UniProt Q13547); assay: Inhibition of recombinant human HDAC1 using RHK-K(Ac) as substrate by homogeneous fluorescence release assay
# Chain of Histone deacetylase 1 (Q13547 whole entry): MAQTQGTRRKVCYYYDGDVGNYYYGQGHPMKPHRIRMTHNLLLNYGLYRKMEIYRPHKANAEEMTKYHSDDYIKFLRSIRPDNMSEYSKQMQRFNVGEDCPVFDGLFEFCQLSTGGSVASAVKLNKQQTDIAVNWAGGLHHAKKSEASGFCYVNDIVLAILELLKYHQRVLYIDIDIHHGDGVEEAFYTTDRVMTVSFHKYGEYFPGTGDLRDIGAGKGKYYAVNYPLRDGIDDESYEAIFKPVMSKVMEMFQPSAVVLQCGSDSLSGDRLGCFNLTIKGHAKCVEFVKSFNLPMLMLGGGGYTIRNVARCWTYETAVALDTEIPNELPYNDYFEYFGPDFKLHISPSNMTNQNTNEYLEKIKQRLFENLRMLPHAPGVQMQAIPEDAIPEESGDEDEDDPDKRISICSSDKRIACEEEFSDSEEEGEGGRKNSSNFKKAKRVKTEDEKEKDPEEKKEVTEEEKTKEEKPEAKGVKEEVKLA
# Histone deacetylase 4 = Histone deacetylase 4 (Homo sapiens, UniProt P56524); assay: Inhibition of recombinant human HDAC4 using Boc-Lys(trifluoroacetyl)-AMC as substrate by homogeneous fluorescence release assay
# Chain of Histone deacetylase 4 (P56524 whole entry): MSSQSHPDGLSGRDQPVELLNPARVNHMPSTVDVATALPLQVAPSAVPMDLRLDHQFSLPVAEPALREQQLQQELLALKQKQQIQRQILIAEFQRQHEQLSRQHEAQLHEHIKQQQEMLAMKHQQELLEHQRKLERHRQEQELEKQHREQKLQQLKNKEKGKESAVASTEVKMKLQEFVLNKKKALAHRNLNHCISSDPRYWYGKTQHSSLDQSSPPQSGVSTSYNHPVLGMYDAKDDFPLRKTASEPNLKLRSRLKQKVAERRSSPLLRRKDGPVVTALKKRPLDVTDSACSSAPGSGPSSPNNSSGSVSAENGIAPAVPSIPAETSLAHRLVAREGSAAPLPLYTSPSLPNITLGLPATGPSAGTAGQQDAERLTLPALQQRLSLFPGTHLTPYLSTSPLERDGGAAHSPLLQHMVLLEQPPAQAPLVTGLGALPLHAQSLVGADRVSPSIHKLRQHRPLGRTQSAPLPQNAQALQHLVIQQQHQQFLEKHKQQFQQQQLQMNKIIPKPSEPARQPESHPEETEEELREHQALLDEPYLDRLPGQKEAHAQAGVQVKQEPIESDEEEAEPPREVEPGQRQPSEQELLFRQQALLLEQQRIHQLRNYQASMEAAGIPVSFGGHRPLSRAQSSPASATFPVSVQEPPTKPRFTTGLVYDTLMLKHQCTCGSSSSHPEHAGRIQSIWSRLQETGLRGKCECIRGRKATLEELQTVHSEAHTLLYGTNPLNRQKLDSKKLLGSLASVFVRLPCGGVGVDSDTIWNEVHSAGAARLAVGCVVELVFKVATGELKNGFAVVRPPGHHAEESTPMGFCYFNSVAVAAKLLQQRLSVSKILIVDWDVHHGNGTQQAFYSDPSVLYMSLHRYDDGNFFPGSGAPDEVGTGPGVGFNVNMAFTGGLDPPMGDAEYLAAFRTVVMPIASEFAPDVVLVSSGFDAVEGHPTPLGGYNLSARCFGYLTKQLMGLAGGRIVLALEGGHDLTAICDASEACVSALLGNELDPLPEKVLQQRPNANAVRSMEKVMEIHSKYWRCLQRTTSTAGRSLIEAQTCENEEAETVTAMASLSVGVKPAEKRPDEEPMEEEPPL
# [8] = molecular target: T3, Protein deacetylase HDAC6 (Homo sapiens, UniProt Q9UBN7); assay: Inhibition of recombinant human HDAC6 using RHK-K(Ac) as substrate by homogeneous fluorescence release assay
# T3 sequence (Q9UBN7 whole entry): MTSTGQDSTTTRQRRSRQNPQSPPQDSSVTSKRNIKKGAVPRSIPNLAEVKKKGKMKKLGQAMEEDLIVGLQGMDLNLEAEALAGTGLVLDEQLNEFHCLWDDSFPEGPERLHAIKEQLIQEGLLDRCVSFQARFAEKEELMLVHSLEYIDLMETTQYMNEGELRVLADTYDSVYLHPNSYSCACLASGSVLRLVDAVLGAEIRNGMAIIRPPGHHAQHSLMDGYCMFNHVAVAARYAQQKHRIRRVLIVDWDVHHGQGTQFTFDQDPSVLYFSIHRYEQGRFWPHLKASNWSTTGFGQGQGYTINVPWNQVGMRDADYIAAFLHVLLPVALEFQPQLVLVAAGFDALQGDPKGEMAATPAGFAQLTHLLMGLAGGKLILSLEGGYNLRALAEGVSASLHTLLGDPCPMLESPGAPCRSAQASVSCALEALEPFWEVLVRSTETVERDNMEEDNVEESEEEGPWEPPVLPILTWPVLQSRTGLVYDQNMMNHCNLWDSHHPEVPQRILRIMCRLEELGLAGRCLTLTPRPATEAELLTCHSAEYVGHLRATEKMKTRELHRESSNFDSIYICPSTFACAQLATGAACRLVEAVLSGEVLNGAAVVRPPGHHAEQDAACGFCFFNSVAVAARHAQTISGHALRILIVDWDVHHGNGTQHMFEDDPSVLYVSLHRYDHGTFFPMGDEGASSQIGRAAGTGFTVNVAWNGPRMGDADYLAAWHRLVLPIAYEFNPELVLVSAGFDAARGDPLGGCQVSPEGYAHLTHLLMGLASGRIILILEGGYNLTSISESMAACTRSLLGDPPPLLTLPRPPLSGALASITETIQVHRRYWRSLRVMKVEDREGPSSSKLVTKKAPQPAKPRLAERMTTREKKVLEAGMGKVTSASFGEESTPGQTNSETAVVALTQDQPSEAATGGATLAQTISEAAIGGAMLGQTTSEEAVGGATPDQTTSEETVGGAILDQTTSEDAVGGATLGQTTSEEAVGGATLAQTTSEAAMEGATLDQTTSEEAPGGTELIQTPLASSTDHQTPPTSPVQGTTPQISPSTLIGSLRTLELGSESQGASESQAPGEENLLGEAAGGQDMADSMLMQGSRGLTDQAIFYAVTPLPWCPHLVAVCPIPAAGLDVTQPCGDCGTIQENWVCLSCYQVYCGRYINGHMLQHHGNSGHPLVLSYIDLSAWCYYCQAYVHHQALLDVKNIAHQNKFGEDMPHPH
# Plasmodium falciparum [9] = assay: Antiplasmodial activity against Plasmodium falciparum Dd2 infected in human erythrocytes assessed as reduction in [3H]-hypoxanthine incorporation measured after 48 hrs by microbeta liquid scintillation counting method; assay type: functional, organism-based
# Plasmodium falciparum [10] = assay: Antiplasmodial activity against asynchronous form of Plasmodium falciparum W2 infected in human erythrocytes assessed as parasite growth inhibition after 48 hrs by SYBR green1 staining based flow cytometry; assay type: functional, organism-based; details: W2, 48 h
# [11] = Cytotoxicity against mouse spleen cells; assay type: cell-based
# [12] = Selectivity index, ratio of IC50 for mouse spleen cells to IC50 for asynchronous form of Plasmodium falciparum 3D7 infected in human erythrocytes; assay type: toxicity, cell-based; details: read-out: Ratio IC50
# HFF = assay: Cytotoxicity against HFF; assay type: cell-based; details: Homo sapiens
# [13] = Stability in phosphate buffered saline at pH 7.4 after 24 hrs by UV/RP-HPLC analysis; assay type: physicochemical; details: buffer, pH 7.4, 24 h
# [14] = Plasma concentration in Crl:NRMI mouse at 50 mg/kg, iv measured after 15 mins by LC-MS/MS analysis; assay type: ADME, organism-based
# [15] = Plasma concentration in Crl:NRMI mouse at 50 mg/kg, iv measured after 60 mins by LC-MS/MS analysis; assay type: ADME, organism-based
# [16] = Plasma concentration in Crl:NRMI mouse at 50 mg/kg, iv measured after 180 mins by LC-MS/MS analysis; assay type: ADME, organism-based
# [17] = Plasma concentration in Crl:NRMI mouse at 50 mg/kg, po administered via gavage measured after 30 mins by LC-MS/MS analysis; assay type: ADME, organism-based
# [18] = Plasma concentration in Crl:NRMI mouse at 50 mg/kg, po administered via gavage measured after 60 mins by LC-MS/MS analysis; assay type: ADME, organism-based
# [19] = Plasma concentration in Crl:NRMI mouse at 50 mg/kg, po administered via gavage measured after 180 mins by LC-MS/MS analysis; assay type: ADME, organism-based
# Plasmodium berghei [20] = assay: Antimalarial activity against Plasmodium berghei ANKA infected in BALB/c mouse assessed as reduction in parasitemia at 50 mg/kg, po administered twice daily for 4 days by Giemsa-staining based microscopic analysis; assay type: functional, organism-based
# Plasmodium berghei [21] = assay: Antimalarial activity against Plasmodium berghei ANKA infected in BALB/c mouse assessed as reduction in parasitemia at 50 mg/kg, po administered twice daily (one dose iv and one dose po) for 4 days by Giemsa-staining based microscopic analysis; assay type: functional, organism-based
# [22] = system: Plasmodium falciparum 3D7; assay: Inhibition of Plasmodium falciparum 3D7 HDAC assessed as increase in histone H4 acetylation at 3 times antiplasmodial IC50 relative to control
SMILES,inhibition at 10 µM (Plasmodium falciparum [3]) [%],IC50 (Plasmodium falciparum [4]) [nM],IC50 (Histone deacetylase 1) [nM],IC50 (Histone deacetylase 4) [nM],IC50 [8] [nM],IC50 (Plasmodium falciparum [9]) [nM],IC50 (Plasmodium falciparum [10]) [nM],IC50 [11] [nM],selectivity ratio [12],IC50 (HFF) [nM],further results
CCN(CC)CCCC(C)Nc1ccnc2cc(Cl)ccc12 (centres undefined),–,–,–,–,–,–,–,–,–,–,Activity (Plasmodium berghei [1]): Active
c1ccc(COc2ccc3c(NC4CCN(Cc5ccccc5)CC4)nc(N4CCN(c5ccccc5)CC4)nc3c2)cc1,100,66.9,–,–,–,–,–,–,–,–,inhibition [2]: 43%
COc1ccc(CCN2CCC(Nc3nc(NCc4ccc(F)cc4)nc4ccccc34)CC2)cc1,100,33.6,–,–,–,–,–,–,–,–,EC50 [5]: > 100000 nM; EC50 [6]: 4800 nM; EC50 [7]: 50900 nM
O=C(/C=C/c1ccc(NC(=O)Cc2cccc3ccccc23)cn1)NO,96.8 to 97.9,10.2 to 21.1,100,2700,15,13.5,15.3,120,9,> 10000,–
COc1ccc(CCN2CCC(Nc3nc(NCc4ccc(F)cc4)nc4cc(OC)c(OC)cc34)CC2)cc1,100,18,–,–,–,6.1,25.8,800,44,3220,EC50 [5]: > 100000 nM; EC50 [6]: 5200 nM; EC50 [7]: 31800 nM
O=C(CCCCCSc1nc(-c2ccc3ccccc3c2)cc(=O)[nH]1)NO,97.4,79.4,1000,> 50000,17,–,–,–,–,–,–
COc1cc2c(NCCNc3cccc4ccccc34)nc(N3CCN(c4ccccc4)CC3)nc2cc1OCc1ccccc1,99.6,56.2,–,–,–,–,–,–,–,–,inhibition [2]: 15%
O=C(CCCCSc1nc(-c2ccc(-c3ccccc3)cc2)cc(=O)[nH]1)NO,96.1 to 97,4 to 6,–,–,–,4,6.6,785,186,3300,Stability [13]: Stable; concentration at 0.25 h [14]: 10700 to 15200 nM; concentration at 1 h [15]: 1670 to 2160 nM; concentration at 3 h [16]: 43 to 44 nM; concentration at 0.5 h [17]: 670 to 2430 nM; concentration at 1 h [18]: 480 to 900 nM; concentration at 3 h [19]: 70 to 300 nM; Activity (Plasmodium berghei [20]): inactive; Activity (Plasmodium berghei [21]): inactive; fold change (FC) [22]: < 2
O=C(Cc1ccccc1)Nc1ccc(C(=O)NO)nc1,97.8,> 1000,200,11000,37,–,–,–,–,–,–
